Source: PubChem BioAssay AID2060899 (Molecular Pharmacology Branch, DTP, NCI, 2025)

System: 565726-208-R1-J5-PDC complex spheroids, growth inhibition
Assay: Anticancer human tumor 565726-208-R1-J5-PDC patient-derived pancreatic adenocarcinoma cell line growth inhibition [RAS]
Settings: for IC50: curve of first compound; for viability, T/C: stronger effect = lower value
In short: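 Tumour cells grown as complex spheroids with HUVEC endothelial cells and mesenchymal stem cells, treated with RAS pathway inhibitor combinations. Each agent spans half-log steps from near clinical Cmax, or 10 microM where Cmax is unknown.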
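Note: spheroids exposed to compounds for seven days before readout.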
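Throughout, for viability, T/C: 100% = DMSO vehicle control viability.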

**Q.** With `O=C(c1ccc(F)c(F)c1Nc1ccc(I)cc1F)N1CC(O)([C@@H]2CCCCN2)C1` + CCn1c(-c2cc(N3CCN(C)CC3)cnc2C(C)OC)c2c3cc(ccc31)-c1csc(n1)CC(NC(=O)C1CC1C)C(=O)N1CCCC(N1)C(=O)OCC(C)(C)C2 as the compound, how does the IC50 (second compound 0.000949 µM) read?
**A.** 103 nM

**Q.** And the IC50 (second compound 0.003 µM)?
**A.** 10.2 nM

**Q.** What about the IC50 (second compound 0.00949 µM) of the same compound?
**A.** < 3.16 nM

**Q.** What about the IC50 (second compound 0.03 µM) of the same compound?
**A.** < 3.16 nM

**Q.** And the IC50 (second compound 0.0949 µM)?
**A.** < 3.16 nM

**Q.** What about the IC50 (second compound 0.3 µM) of the same compound?
**A.** < 3.16 nM

**Q.** What about the viability, T/C (second compound 0.000949 µM, first compound 0.00316 µM) of the same compound?
**A.** 66.8%

**Q.** What about the viability, T/C (second compound 0.000949 µM, first compound 0.01 µM) of the same compound?
**A.** 59.9%

**Q.** What about the viability, T/C (second compound 0.000949 µM, first compound 0.0316 µM) of the same compound?
**A.** 63.8%

**Q.** And the viability, T/C (second compound 0.000949 µM, first compound 0.1 µM)?
**A.** 49.5%

**Q.** And the viability, T/C (second compound 0.000949 µM, first compound 0.316 µM)?
**A.** 29.4%

**Q.** What about the viability, T/C (second compound 0.000949 µM, first compound 1 µM) of the same compound?
**A.** 9.76%

**Q.** And the viability, T/C (second compound 0.003 µM, first compound 0.00316 µM)?
**A.** 55.3%

**Q.** And the viability, T/C (second compound 0.003 µM, first compound 0.01 µM)?
**A.** 49.6%

**Q.** What about the viability, T/C (second compound 0.003 µM, first compound 0.0316 µM) of the same compound?
**A.** 40.7%

**Q.** What about the viability, T/C (second compound 0.003 µM, first compound 0.1 µM) of the same compound?
**A.** 25.4%

**Q.** What about the viability, T/C (second compound 0.003 µM, first compound 0.316 µM) of the same compound?
**A.** 14%

**Q.** What about the viability, T/C (second compound 0.003 µM, first compound 1 µM) of the same compound?
**A.** 6.79%

**Q.** What about the viability, T/C (second compound 0.00949 µM, first compound 0.00316 µM) of the same compound?
**A.** 39.3%

**Q.** What about the viability, T/C (second compound 0.00949 µM, first compound 0.01 µM) of the same compound?
**A.** 36.5%

**Q.** What about the viability, T/C (second compound 0.00949 µM, first compound 0.0316 µM) of the same compound?
**A.** 27.8%

**Q.** What about the viability, T/C (second compound 0.00949 µM, first compound 0.1 µM) of the same compound?
**A.** 16.7%

**Q.** And the viability, T/C (second compound 0.00949 µM, first compound 0.316 µM)?
**A.** 7.84%

**Q.** And the viability, T/C (second compound 0.00949 µM, first compound 1 µM)?
**A.** 4.42%

**Q.** What about the viability, T/C (second compound 0.03 µM, first compound 0.00316 µM) of the same compound?
**A.** 23.9%

**Q.** And the viability, T/C (second compound 0.03 µM, first compound 0.01 µM)?
**A.** 23.5%

**Q.** And the viability, T/C (second compound 0.03 µM, first compound 0.0316 µM)?
**A.** 18.2%

**Q.** What about the viability, T/C (second compound 0.03 µM, first compound 0.1 µM) of the same compound?
**A.** 8.87%

**Q.** And the viability, T/C (second compound 0.03 µM, first compound 0.316 µM)?
**A.** 4.75%

**Q.** What about the viability, T/C (second compound 0.03 µM, first compound 1 µM) of the same compound?
**A.** 4.55%

**Q.** And the viability, T/C (second compound 0.0949 µM, first compound 0.00316 µM)?
**A.** 17.6%

**Q.** And the viability, T/C (second compound 0.0949 µM, first compound 0.01 µM)?
**A.** 12.8%

**Q.** What about the viability, T/C (second compound 0.0949 µM, first compound 0.0316 µM) of the same compound?
**A.** 8.13%

**Q.** What about the viability, T/C (second compound 0.0949 µM, first compound 0.1 µM) of the same compound?
**A.** 5.18%

**Q.** What about the viability, T/C (second compound 0.0949 µM, first compound 0.316 µM) of the same compound?
**A.** 4.88%

**Q.** And the viability, T/C (second compound 0.0949 µM, first compound 1 µM)?
**A.** 4.22%

**Q.** And the viability, T/C (second compound 0.3 µM, first compound 0.00316 µM)?
**A.** 14.9%

**Q.** And the viability, T/C (second compound 0.3 µM, first compound 0.01 µM)?
**A.** 12.6%

**Q.** What about the viability, T/C (second compound 0.3 µM, first compound 0.0316 µM) of the same compound?
**A.** 6.29%

**Q.** What about the viability, T/C (second compound 0.3 µM, first compound 0.1 µM) of the same compound?
**A.** 4%

**Q.** What about the viability, T/C (second compound 0.3 µM, first compound 0.316 µM) of the same compound?
**A.** 3.7%

**Q.** And the viability, T/C (second compound 0.3 µM, first compound 1 µM)?
**A.** 3.03%
